Patent US10757943B2, “Thidiazuron mixtures and uses thereof” (Valent BioSciences LLC, priority 2017, dated 2020)

Legend:
Type in all cases: in vivo
[1] = test system: Concord grape vines; assay: Bud break and harvest weight of endo-dormant two-year-old Concord grape vines in the greenhouse (Example 4); settings: thidiazuron ppm and 17-0-0 % as in label, 15-0-0 65,880 ppm
From the text: Two-year-old Concord grape vines were purchased commercially. These vines had just lost their leaves and were shipped shortly after they were dug at the nursery. Thus, the vines had not fulfilled their chilling requirement and were considered endo-dormant. The vines were potted individually into one-gallon pots containing ProMix® BX immediately upon receipt and subsequently pruned back to the five proximal buds on the one-year old wood. Within two hours of pruning, treatment solutions were applied using a foam paint brush to the remaining one-year old wood, including the cut end from pruning. Two treatments, water and hydrogen cyanimide, which acted as negative and positive controls, respectively, were included in all studies.
Treatment solutions were made fresh in water and contained 1% (v/v) non-ionic surfactant. In all cases, two treatment solutions were applied to the plants. Where a single component was used for a treatment, the first application solution was water containing surfactant; in the cases where combination treatments were made to the same plant, the first treatment solution was allowed to dry prior to applying the second.
The treated plants were kept in a conventional greenhouse under supplemental lighting. Greenhouse conditions were 65:60° F. Day:Night temperature with a 16:8 hour photoperiod. Relief from dormancy was assessed every two days during the course of the study. Dormancy was considered relieved upon the emergence of a green bud. Both the number of ‘broken buds’ per plant and the date of relief of plants from dormancy were assessed. At the close of the study, new growth was removed from each of the treated plants and weighed.

[2] = test system: Red Flame seedless grape vines; assay: Bud break and shoot length of field-grown Red Flame seedless grape vines (Example 2); settings: hydrogen cyanamide 10,000 ppm, thidiazuron 300 ppm, 17-0-0 197,100 ppm
Protocol: To assess the ability of mixtures of the invention to promote and synchronize bud break these mixtures were applied to field-grown Red Flame seedless grape vines and examined for bud break (initiation of growth) and subsequent shoot development. Thidiazuron, hydrogen cyanamide, 17-0-0 fertilizer, and mixtures thereof were each applied individually or sequentially (co-applied) to the separate spurs of Red Flame seedless grape vines. Plants were evaluated for bud break at 31 days after treatment, for percent bud break and total new shoot length at 48 days after treatment. Results of these evaluations can be seen below in Tables 4 and 5.

[3] = test system: Concord grape vines; assay: Bud break and shoot growth of potted dormant Concord grape vines in the greenhouse (Example 1); settings: for % bud break (vines with at least one bud break): hydrogen cyanamide 10,000 ppm, 17-0-0 197,100 ppm, 15-0-0 239,060 ppm, ACC 1,000 ppm; for Initial to 50% Bud Break: synchrony of bud break; for 50% Bud Break (DAT): time to 50% bud break
From the text: An aqueous 50% hydrogen cyanamide solution (Sigma-Aldrich, St. Louis, Mo. USA) was used as the source of hydrogen cyanamide. The commercial product, Dormex® contains 50% hydrogen cyanamide (w/v) in water.
Erger® was used as the source of 15-0-0 fertilizer. (Erger is a registered trademark of Valagro S.P.A., Italy and is available from Helena Chemical Company, Collierville, Tenn., USA). Erger® contains 15% total nitrogen as 3.1% ammoniacal nitrogen, 5.8% nitrate nitrogen and 6.1% urea nitrogen and 3.3% calcium derived from ammonium nitrate, calcium nitrate and urea. As used herein, the term “15-0-0 fertilizer” refers to the Erger® formulation above and all formulations described in International PCT application publication WO/2001/037653A2 by Valagro S.P.A., Italy, which is incorporated, herein, in its entirety.
CAN-17 was used as the source of 17-0-0 fertilizer. CAN-17 contains 17% total nitrogen as 4.6% ammonium nitrogen and […] nitrate nitrogen and 1.3% urea nitrogen and 8.8% calcium derived from ammonium nitrate and calcium nitrate. CAN-17 is available from J.R. Simplot Company (Boise, Id., USA).
To assess the ability of mixtures of the invention to promote and synchronize bud break these mixtures were applied to Concord grape vines and examined for bud break (initiation of growth) and subsequent shoot development. Specifically, 1 year old dormant bare rooted Concord grape vines were planted in pots containing Pro-Mix® BX potting soil (Pro-Mix is a registered trademark of and available from Premier Horticulture Ltd.) and pruned to 5 nodes on a single shoot. Aqueous solutions of thidiazuron, hydrogen cyanamide, 15-0-0 fertilizer, 17-0-0 fertilizer and 1-aminocyclopropane-1-carboxylic acid (“ACC”), and mixtures thereof were each applied individually or sequentially or co-applied to the first-year wood of separate Concord grape vines. Plants were grown in the greenhouse for 49 days and evaluated for percent of vines showing bud break, or relief from dormancy, periodically between 7 days and the conclusion of the experiment. […] At 49 days after treatment (DAT), the plants were sacrificed and measured for total number of flower clusters, total new shoot length, longest new shoot, combined new shoot fresh weight and combined new shoot dry weight. New shoot growth is the growth arising from the dormant buds not including the woody growth that was planted and gave rise to the new growth.
Synergy is calculated by the Abbott method: %Cexp=A+B−(AB/100), where % Cexp is the expected efficacy and in which A and B are the speed of bud break or shoot length or shoot weight given by the single active ingredients. If the ratio between the experimentally observed efficacy of the mixture Cobs and the expected efficacy of the mixture is greater than 1, synergistic interactions are present in the mixture” (Gisi, Synergistic Interaction of Fungicides in Mixtures, The American Phytopathological Society, 86:11, 1273-1279,1996).

[4] = 49 days post treatment, thidiazuron ppm as in label, other concentrations as in Table 1
[5] = thidiazuron 300 ppm unless label states other, other concentrations as in Table 1
[6] = thidiazuron 300 ppm unless label states other, other concentrations as in Table 1, listed as hydrogen cyanamide

N#CN [Hydrogen Cyanamide, hydrogen cyanamide]
Fresh Shoot Weight (g)/Plant ([1]; new growth at close of study): 31.49 g | 50% Bud Break (DAT) [1]: 16 DAT | 100% Bud Break (DAT) [1]: 33 DAT | Initial to 50% Bud Break [1]: 2 | Number of Buds Broken/Plant [1]: 1.5 | Broken Buds per plant (Average Buds Broken per Spur) ([2]; 31 days after treatment): 0.53 | % Broken Buds ([2]; 48 days after treatment): 58.8% | Total Shoot Length ([2]; 48 days after treatment): 25.2 | % bud break (vines with at least one bud break) ([3]; 7 DAT, thidiazuron 300 ppm unless label states other): 0% | % bud break (vines with at least one bud break) ([3]; 10 DAT, thidiazuron 300 ppm unless label states other): 11.1% | % bud break (vines with at least one bud break) ([3]; 13 DAT, thidiazuron 300 ppm unless label states other): 44.4% | % bud break (vines with at least one bud break) ([3]; 15 DAT, thidiazuron 300 ppm unless label states other): 66.7% | % bud break (vines with at least one bud break) ([3]; 17 DAT, thidiazuron 300 ppm unless label states other): 77.8% | % bud break (vines with at least one bud break) ([3]; 20 DAT, thidiazuron 300 ppm unless label states other): 88.9% | % bud break (vines with at least one bud break) ([3]; 22 DAT, thidiazuron 300 ppm unless label states other): 88.9% | % bud break (vines with at least one bud break) ([3]; 24 DAT, thidiazuron 300 ppm unless label states other): 88.9% | % bud break (vines with at least one bud break) ([3]; 27 DAT, thidiazuron 300 ppm unless label states other): 88.9% | % bud break (vines with at least one bud break) ([3]; 29 DAT, thidiazuron 300 ppm unless label states other): 88.9% | % bud break (vines with at least one bud break) ([3]; 31 DAT, thidiazuron 300 ppm unless label states other): 88.9% | % bud break (vines with at least one bud break) ([3]; 34 DAT, thidiazuron 300 ppm unless label states other): 100.0% | % bud break (vines with at least one bud break) ([3]; 36 DAT, thidiazuron 300 ppm unless label states other): 100.0% | % bud break (vines with at least one bud break) ([3]; 38 DAT, thidiazuron 300 ppm unless label states other): 100.0% | % bud break (vines with at least one bud break) ([3]; 41 DAT, thidiazuron 300 ppm unless label states other): 100.0% | % bud break (vines with at least one bud break) ([3]; 43 DAT, thidiazuron 300 ppm unless label states other): 100.0% | % bud break (vines with at least one bud break) ([3]; 49 DAT, thidiazuron 300 ppm unless label states other): 100.0% | Combined Shoot Dry Weight [3, 4]: 9.0 g | Combined Shoot Fresh Weight [3, 4]: 39.3 g | Longest Shoot Length [3, 4]: 83.8 cm | Total # of Flower Clusters [3, 4]: 0.0 | Total Shoot Length [3, 4]: 129.8 cm | Dry Weight (g)/25% Bud Break to Harvest (d) ([3]; combined shoot dry weight at 49 DAT normalised by days from 25% bud break to harvest): 0.24 g/day | Dry Weight (g)/50% Bud Break to Harvest (d) ([3]; combined shoot dry weight at 49 DAT normalised by days from 50% bud break to harvest): 0.26 g/day | Fresh Weight (g)/50% Bud Break to Harvest (d) ([3]; combined shoot fresh weight at 49 DAT normalised by days from 50% bud break to harvest): 1.12 g/day | 50% Bud Break to Harvest ([3]; harvest at day 49, thidiazuron 300 ppm unless label states other, other concentrations as in Table 1): 35 days | Initial to 50% Bud Break [3, 5]: 5 days | Initial to 50% Bud Break [3, 6]: ≤ 5 days | 25% Bud Break (DAT) ([3]; time to 25% bud break, thidiazuron 300 ppm unless label states other, other concentrations as in Table 1): 11 DAT | 50% Bud Break (DAT) [3, 5]: 14 DAT | 50% Bud Break (DAT) [3, 6]: ≤ 14 DAT
